# Measured values from ChEMBL document CHEMBL1135524, “2-Ethyl and 2-ethylidene analogues of 1alpha,25-dihydroxy-19-norvitamin D(3): synthesis, conformational analysis, biological activities, and docking to the modeled rVDR ligand binding domain” (2002).
# Several values for one entry are separate records, joined by “and”; a condition that tells them apart may be missing. Equal entries are not always repeated.
# Assays:
# HL-60 [1] = assay: Ratio of average ED50 to 1-alpha,25-(OH)2D3 ED50 for differentiation assay; assay type: functional, Homo sapiens
# Rattus norvegicus [2] = species: Rattus norvegicus; assay: Intestinal calcium transport at dose 260 (pmol); assay type: functional
# HL-60 [3] = assay: Ability to induce differentiation of human promyelocyte HL-60 cells into monocytes.; assay type: functional; details: read-out: ED50 (the source's name)
# Rattus norvegicus [4] = species: Rattus norvegicus; assay: (§1) Bone calcium mobilization in rats maintained on a very low calcium diet at a dose 130 (pmol); assay type: functional, organism-based
# Rattus norvegicus [5] = species: Rattus norvegicus; assay: Intestinal calcium transport at dose 130 (pmol); assay type: functional
# Rattus norvegicus [6] = species: Rattus norvegicus; assay: as §1; assay type: functional, organism-based; remark: listed apart in the source
# Rattus norvegicus [7] = species: Rattus norvegicus; assay: Bone calcium mobilization in rats maintained on a very low calcium diet at a dose 260 (pmol); assay type: functional, organism-based
# [8] = molecular target: T1, Vitamin D3 receptor (Sus scrofa) (UniProt A3RGC1); assay: Binding affinity for porcine intestinal Vitamin D3 receptor (VDR)
# T1 sequence (whole entry): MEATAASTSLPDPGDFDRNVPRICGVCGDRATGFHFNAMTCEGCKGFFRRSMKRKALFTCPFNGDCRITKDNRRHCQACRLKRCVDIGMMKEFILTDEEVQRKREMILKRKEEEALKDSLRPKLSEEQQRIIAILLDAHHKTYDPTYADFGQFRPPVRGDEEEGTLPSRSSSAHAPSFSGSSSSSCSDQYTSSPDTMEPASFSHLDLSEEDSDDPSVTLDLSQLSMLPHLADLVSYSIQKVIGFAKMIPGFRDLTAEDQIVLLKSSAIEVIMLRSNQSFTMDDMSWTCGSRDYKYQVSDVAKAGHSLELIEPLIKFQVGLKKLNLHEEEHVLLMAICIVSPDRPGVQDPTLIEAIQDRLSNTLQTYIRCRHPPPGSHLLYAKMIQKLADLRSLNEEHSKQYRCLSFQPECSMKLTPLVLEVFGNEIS
EC50 (HL-60 [3]) [pM],SMILES,Activity ratio (HL-60 [1]),Ca2+ transport (Rattus norvegicus [2]),Ca2+ transport (Rattus norvegicus [5]),Serum Ca2+ (Rattus norvegicus [7]),other results
460,CCC1[C@H](O)CC(=C/C=C2\CCC[C@]3(C)[C@@H]([C@H](C)CCCC(C)(C)O)CC[C@@H]23)C[C@H]1O (some centres undefined) [listing 1 of 3 here],0.17,4,–,–,–
6300,CCC1[C@H](O)CC(=C/C=C2\CCC[C@]3(C)[C@@H]([C@@H](C)CCCC(C)(C)O)CC[C@@H]23)C[C@H]1O (some centres undefined) [listing 2 of 3 here],2.3,4.1,–,–,–
130,CCC1[C@H](O)CC(=C/C=C2\CCC[C@]3(C)[C@@H]([C@@H](C)CCCC(C)(C)O)CC[C@@H]23)C[C@H]1O (some centres undefined) [listing 3 of 3 here],0.05,–,–,–,–
12000,CCC1[C@H](O)CC(=C/C=C2\CCC[C@]3(C)[C@@H]([C@H](C)CCCC(C)(C)O)CC[C@@H]23)C[C@H]1O (some centres undefined) [listing 3 of 3 here],4.4,3.7,–,–,–
150,CC=C1[C@H](O)CC(=C/C=C2\CCC[C@]3(C)[C@@H]([C@@H](C)CCCC(C)(C)O)CC[C@@H]23)C[C@H]1O [listing 3 of 3 here],0.06,6.6,6.7,–,–

# More lines, now with the values behind:
SMILES,EC50 (HL-60 [3]) [pM],Activity ratio (HL-60 [1]),Ca2+ transport (Rattus norvegicus [2]),Ca2+ transport (Rattus norvegicus [5]),Serum Ca2+ (Rattus norvegicus [7]),other results
C=C1/C(=C\C=C2/CCC[C@]3(C)[C@@H]([C@H](C)CCCC(C)(C)O)CC[C@@H]23)C[C@@H](O)C[C@@H]1O [CALCITRIOL],–,–,6.5 and 5.9 and 6,5.5 and 4.9 and 5.2,5.8 (2×) and 6.4 (2×),Serum Ca2+ (Rattus norvegicus [4]): 5.1; Serum Ca2+ (Rattus norvegicus [6]): 5.2 and 5.7
CCC1[C@H](O)CC(=C/C=C2\CCC[C@]3(C)[C@@H]([C@H](C)CCCC(C)(C)O)CC[C@@H]23)C[C@H]1O (some centres undefined) [listing 2 of 3 here],–,–,–,–,5 and 5.1,–
CC=C1[C@H](O)CC(=C/C=C2\CCC[C@]3(C)[C@@H]([C@H](C)CCCC(C)(C)O)CC[C@@H]23)C[C@H]1O [listing 1 of 3 here],–,0.8,5,6.8,–,"EC50 (HL-60 [3]; Homo sapiens, HL-60): 2000 pM"
CCC1[C@H](O)CC(=C/C=C2\CCC[C@]3(C)[C@@H]([C@@H](C)CCCC(C)(C)O)CC[C@@H]23)C[C@H]1O (some centres undefined) [listing 1 of 3 here],–,–,–,–,5.6,–
CC=C1[C@H](O)CC(=C/C=C2\CCC[C@]3(C)[C@@H]([C@@H](C)CCCC(C)(C)O)CC[C@@H]23)C[C@H]1O [listing 1 of 3 here],–,–,–,–,8.2 and 4.4,ED50 [8]: 280 pM and 500 pM; Serum Ca2+ (Rattus norvegicus [4]): 12.1 and 5.1
CC=C1[C@H](O)CC(=C/C=C2\CCC[C@]3(C)[C@@H]([C@H](C)CCCC(C)(C)O)CC[C@@H]23)C[C@H]1O [listing 2 of 3 here],4000,1.6,4.4,5.7,–,–
CC=C1[C@H](O)CC(=C/C=C2\CCC[C@]3(C)[C@@H]([C@@H](C)CCCC(C)(C)O)CC[C@@H]23)C[C@H]1O [listing 2 of 3 here],–,0.09,9,5.8,–,"EC50 (HL-60 [3]; Homo sapiens, HL-60): 220 pM"
CC=C1[C@H](O)CC(=C/C=C2\CCC[C@]3(C)[C@@H]([C@H](C)CCCC(C)(C)O)CC[C@@H]23)C[C@H]1O [listing 3 of 3 here],–,–,–,–,4.5 and 4.4,Serum Ca2+ (Rattus norvegicus [4]): 5.2 and 4.2
